Experiment: Influence of humidity: water content of crystals after standing at controlled relative humidity
Type: physicochemical
Details: 7 days, 25° C.; for Change of water content with rising relative humidity: 22 to 93% RH
Protocol: Test Example 1 Influence of Humidity After being allowed to stand the compounds of the present invention (T-614β, T-614γ and T-614 hydrate) and the compound disclosed as Example 5 in Japanese Patent Laid-Open No. 5-97840 (T-614α) under the relative humidity 22, 51, 75 and 93% RH for 7 days at 25° C., the water content of each crystal was measured.

## CS(=O)(=O)Nc1cc2occ(NC=O)c(=O)c2cc1Oc1ccccc1 [T-614 hydrate, N-[3-(formylamino)-4-oxo-6-phenoxy-4H-chromen-7-yl]methanesulfonamide]
  Change of water content with rising relative humidity: almost kept unchanged
  Stability under a high humidity condition: stable under a high humidity condition
Relative humidity 22% RH
  Water content (%): 4.09%
Relative humidity 51% RH
  Water content (%): 4.15%
Relative humidity 75% RH
  Water content (%): 4.08%
Relative humidity 93% RH
  Water content (%): 4.03%

## CS(=O)(=O)Nc1cc2occ(NC=O)c(=O)c2cc1Oc1ccccc1 [T-614α, N-[3-(formylamino)-4-oxo-6-phenoxy-4H -chromen-7-yl]methanesulfonamide, reference compound]
  Change of water content with rising relative humidity: increased with the rising of relative humidity
Relative humidity 22% RH
  Water content (%): 0.30%
Relative humidity 51% RH
  Water content (%): 1.29%
Relative humidity 75% RH
  Water content (%): 2.88%
Relative humidity 93% RH
  Water content (%): 3.62%

## CS(=O)(=O)Nc1cc2occ(NC=O)c(=O)c2cc1Oc1ccccc1 [T-614γ, N-[3-(formylamino)-4-oxo-6-phenoxy-4H-chromen-7-yl]methanesulfonamide]
  Change of water content with rising relative humidity: almost kept unchanged
  Stability under a high humidity condition: stable under a high humidity condition
Relative humidity 22% RH
  Water content (%): 0.28%
Relative humidity 51% RH
  Water content (%): 0.33%
Relative humidity 75% RH
  Water content (%): 0.52%
Relative humidity 93% RH
  Water content (%): 0.65%

## CS(=O)(=O)Nc1cc2occ(NC=O)c(=O)c2cc1Oc1ccccc1 [T-614β, N-[3-(formylamino)-4-oxo-6-phenoxy-4H-chromen-7-yl]methanesulfonamide]
  Change of water content with rising relative humidity: almost kept unchanged
  Stability under a high humidity condition: stable under a high humidity condition
Relative humidity 22% RH
  Water content (%): 0.54%
Relative humidity 51% RH
  Water content (%): 0.25%
Relative humidity 75% RH
  Water content (%): 0.21%
Relative humidity 93% RH
  Water content (%): 0.18%
